Columns and labels:
Assay type in all cases: cell-based
[1] = target: T1, SmVKR1 (Schistosoma mansoni, UniProt Q8WSM2); assay: GVBD competition assay in receptor-expressing Xenopus oocytes; conditions: competitive antagonist; 10-fold excess over L-Arg; inactive as agonist
T1 construct: full-length, pcDNA3.1-V5/His (V5 or Myc tag), cRNA-injected Xenopus laevis oocytes; about 150 kDa; active as homodimer

[2] = target: T1, SmVKR1; assay: GVBD assay in receptor-expressing Xenopus oocytes; conditions: agonist
[3] = target: T2, SmVKR2 (Schistosoma mansoni, UniProt D5JEH1); assay: GVBD assay in receptor-expressing Xenopus oocytes; receptor autophosphorylation by Western blot; conditions: agonist; ND96 medium without Ca2+; VFT domain
T2 construct: full-length, pcDNA3.1-V5/His (V5 or Myc tag), cRNA-injected Xenopus laevis oocytes; about 170 kDa; active as homodimer
T2 sequence (D5JEH1 21-1641): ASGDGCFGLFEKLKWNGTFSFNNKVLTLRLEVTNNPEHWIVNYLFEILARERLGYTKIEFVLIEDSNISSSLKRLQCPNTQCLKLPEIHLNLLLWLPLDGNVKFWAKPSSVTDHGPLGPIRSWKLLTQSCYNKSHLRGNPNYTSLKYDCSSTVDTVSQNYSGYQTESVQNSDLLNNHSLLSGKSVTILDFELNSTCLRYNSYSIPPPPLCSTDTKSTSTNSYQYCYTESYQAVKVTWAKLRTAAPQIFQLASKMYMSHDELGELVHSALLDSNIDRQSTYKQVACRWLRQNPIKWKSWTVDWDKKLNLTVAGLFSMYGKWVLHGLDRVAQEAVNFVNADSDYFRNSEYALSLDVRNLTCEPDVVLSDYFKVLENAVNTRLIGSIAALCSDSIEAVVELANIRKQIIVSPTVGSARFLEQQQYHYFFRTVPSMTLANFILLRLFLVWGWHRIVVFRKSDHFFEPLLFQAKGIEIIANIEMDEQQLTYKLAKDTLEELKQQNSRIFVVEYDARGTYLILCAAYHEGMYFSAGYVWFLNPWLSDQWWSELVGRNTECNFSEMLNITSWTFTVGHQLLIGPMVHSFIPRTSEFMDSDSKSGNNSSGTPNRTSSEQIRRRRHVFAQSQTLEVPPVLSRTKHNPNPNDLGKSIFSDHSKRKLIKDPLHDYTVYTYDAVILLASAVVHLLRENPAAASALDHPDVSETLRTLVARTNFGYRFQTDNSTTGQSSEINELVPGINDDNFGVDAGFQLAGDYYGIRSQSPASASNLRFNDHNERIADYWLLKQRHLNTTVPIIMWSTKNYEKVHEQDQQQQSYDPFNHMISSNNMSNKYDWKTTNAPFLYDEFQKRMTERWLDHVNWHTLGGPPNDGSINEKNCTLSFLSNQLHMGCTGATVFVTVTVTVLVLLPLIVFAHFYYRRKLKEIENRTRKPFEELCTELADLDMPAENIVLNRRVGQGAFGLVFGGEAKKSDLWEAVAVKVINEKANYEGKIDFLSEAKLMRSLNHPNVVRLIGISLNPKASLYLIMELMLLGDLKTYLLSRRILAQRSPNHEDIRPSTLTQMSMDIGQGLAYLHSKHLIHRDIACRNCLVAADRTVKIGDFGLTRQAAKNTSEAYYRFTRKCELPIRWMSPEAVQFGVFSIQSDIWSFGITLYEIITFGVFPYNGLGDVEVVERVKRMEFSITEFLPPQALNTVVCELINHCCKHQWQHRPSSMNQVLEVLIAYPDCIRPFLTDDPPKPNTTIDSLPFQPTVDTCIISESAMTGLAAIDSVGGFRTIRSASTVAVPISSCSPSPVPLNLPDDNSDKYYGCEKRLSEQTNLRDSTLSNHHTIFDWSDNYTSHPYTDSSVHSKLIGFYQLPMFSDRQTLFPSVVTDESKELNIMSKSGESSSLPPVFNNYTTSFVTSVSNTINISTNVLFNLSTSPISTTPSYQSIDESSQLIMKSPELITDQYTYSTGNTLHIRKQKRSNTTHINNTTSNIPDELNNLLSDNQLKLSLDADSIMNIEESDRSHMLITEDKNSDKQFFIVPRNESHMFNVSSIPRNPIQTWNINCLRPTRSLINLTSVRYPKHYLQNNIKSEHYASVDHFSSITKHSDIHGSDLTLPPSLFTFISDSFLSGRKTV

[4] = target: T1, SmVKR1; assay: as above; conditions: agonist; ND96 medium, 19 °C, 15 h; VFT domain; activation independent of Ca2+

T1 sequence (Q8WSM2 24-1559): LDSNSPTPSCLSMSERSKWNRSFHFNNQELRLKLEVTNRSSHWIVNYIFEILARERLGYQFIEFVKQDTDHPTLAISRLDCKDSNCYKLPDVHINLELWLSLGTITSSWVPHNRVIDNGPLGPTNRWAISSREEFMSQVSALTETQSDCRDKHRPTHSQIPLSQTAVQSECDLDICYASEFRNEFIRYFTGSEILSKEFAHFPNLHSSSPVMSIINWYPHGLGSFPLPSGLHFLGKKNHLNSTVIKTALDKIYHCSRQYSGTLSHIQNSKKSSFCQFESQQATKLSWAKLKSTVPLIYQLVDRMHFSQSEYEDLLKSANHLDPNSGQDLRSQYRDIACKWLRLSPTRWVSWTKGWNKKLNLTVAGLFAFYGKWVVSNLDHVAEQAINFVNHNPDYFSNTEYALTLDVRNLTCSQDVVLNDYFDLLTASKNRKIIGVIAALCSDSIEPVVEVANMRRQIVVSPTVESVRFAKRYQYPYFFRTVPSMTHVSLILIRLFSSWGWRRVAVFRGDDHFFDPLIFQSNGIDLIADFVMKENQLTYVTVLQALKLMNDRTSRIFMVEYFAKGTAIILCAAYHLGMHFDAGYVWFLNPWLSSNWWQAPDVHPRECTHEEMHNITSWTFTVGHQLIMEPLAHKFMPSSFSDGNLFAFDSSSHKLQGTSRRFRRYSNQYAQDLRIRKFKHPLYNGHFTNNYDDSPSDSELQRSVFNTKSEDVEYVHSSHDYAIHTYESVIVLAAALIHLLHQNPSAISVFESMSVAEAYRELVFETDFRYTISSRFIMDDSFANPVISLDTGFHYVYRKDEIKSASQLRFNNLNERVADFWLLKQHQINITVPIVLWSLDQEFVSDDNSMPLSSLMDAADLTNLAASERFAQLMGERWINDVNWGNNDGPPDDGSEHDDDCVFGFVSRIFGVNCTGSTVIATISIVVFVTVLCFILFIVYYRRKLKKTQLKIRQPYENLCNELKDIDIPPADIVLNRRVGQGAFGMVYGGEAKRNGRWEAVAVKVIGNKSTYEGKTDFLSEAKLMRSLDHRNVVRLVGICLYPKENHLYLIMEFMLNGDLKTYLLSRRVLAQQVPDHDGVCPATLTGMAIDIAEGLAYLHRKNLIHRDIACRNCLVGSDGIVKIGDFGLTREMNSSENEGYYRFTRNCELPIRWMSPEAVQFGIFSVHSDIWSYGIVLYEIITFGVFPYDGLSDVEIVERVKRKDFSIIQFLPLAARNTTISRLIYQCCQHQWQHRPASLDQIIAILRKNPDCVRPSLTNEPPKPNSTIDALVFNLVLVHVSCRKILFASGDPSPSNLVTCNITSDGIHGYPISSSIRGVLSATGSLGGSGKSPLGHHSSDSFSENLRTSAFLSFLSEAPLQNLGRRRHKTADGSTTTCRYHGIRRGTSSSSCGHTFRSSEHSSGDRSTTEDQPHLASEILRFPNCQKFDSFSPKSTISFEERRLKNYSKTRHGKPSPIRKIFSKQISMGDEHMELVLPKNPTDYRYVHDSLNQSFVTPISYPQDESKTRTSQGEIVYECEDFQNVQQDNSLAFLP

SMILES: N=C(N)NCCCCN [agmatine]
- GVBD competition assay in receptor-expressing Xenopus oocytes [1]: compete and to block totally the inducing effect of L-Arg

SMILES: N=C(N)NOCC[C@H](N)C(=O)O [Canavanine]
- GVBD competition assay in receptor-expressing Xenopus oocytes [1]: compete and to block totally the inducing effect of L-Arg

SMILES: N[C@@H](CCC(=O)O)C(=O)O [Glu]
- GVBD at 1 mM [2]: (Arg, Ser, Gly, Ala, Cys, Thr and Glu) had the potential to activate SmVKR1

SMILES: NCC(=O)O [Gly]
- GVBD at 1 mM [2]: (Arg, Ser, Gly, Ala, Cys, Thr and Glu) had the potential to activate SmVKR1

SMILES: CN(CC(=O)O)C(=N)N [creatine]
- GVBD competition assay in receptor-expressing Xenopus oocytes [1]: compete and to block totally the inducing effect of L-Arg

SMILES: N=C(N)NCCC[C@H](N)C(=O)O [L-Arg]
- minimal concentration [3]: 1 mM
- % GVBD at 1 μM [4]: 80%

SMILES: N[C@@H](CS)C(=O)O [Cys]
- GVBD at 1 mM [2]: (Arg, Ser, Gly, Ala, Cys, Thr and Glu) had the potential to activate SmVKR1

SMILES: N=C(N)NCCC[C@@H](N)C(=O)O [D-Arg]
- GVBD competition assay in receptor-expressing Xenopus oocytes [1]: compete and to block totally the inducing effect of L-Arg

SMILES: C[C@@H](O)[C@H](N)C(=O)O [Thr]
- GVBD at 1 mM [2]: (Arg, Ser, Gly, Ala, Cys, Thr and Glu) had the potential to activate SmVKR1

SMILES: NCCC[C@H](N)C(=O)O [ornithine]
- GVBD competition assay in receptor-expressing Xenopus oocytes [1]: compete and to block totally the inducing effect of L-Arg

SMILES: N[C@@H](CO)C(=O)O [Ser]
- GVBD at 1 mM [2]: (Arg, Ser, Gly, Ala, Cys, Thr and Glu) had the potential to activate SmVKR1

SMILES: C[C@H](N)C(=O)O [Ala]
- GVBD at 1 mM [2]: (Arg, Ser, Gly, Ala, Cys, Thr and Glu) had the potential to activate SmVKR1

Source: PMC4038586, “Venus Kinase Receptors Control Reproduction in the Platyhelminth Parasite Schistosoma mansoni” (PLoS Pathogens, 2014)
